In article PMC9848300, “Discovery of novel enasidenib analogues targeting inhibition of mutant isocitrate dehydrogenase 2 as antileukaemic agents” (Journal of Enzyme Inhibition and Medicinal Chemistry, 2023):
Like-named read-outs stand apart in the source and are kept apart here.

What was measured:
Format in all cases: cell-based
[1] = tested on: SR; assay: NCI 60 antitumor screening (single dose / five doses); conditions: Homo sapiens, read-out: Growth inhibition percentage (GI %)
[2] = tested on: MDA-MB-435; assay: as above; conditions: Homo sapiens
[3] = tested on: RXF 393; assay: as above; conditions: Homo sapiens
[4] = tested on: HOP-92; assay: as above; conditions: Homo sapiens
[5] = tested on: NCI-H522; assay: NCI 60 antitumor screening (single dose); conditions: Homo sapiens; NCI-H522 (non-small cell lung cancer), single dose 10 μM; read-out: Growth inhibition percentage (GI %)
Method: (§1) Initially, the anticancer effects of target compounds have been assessed at a single (10 μM) dose. The obtained data have been reported as mean-graph of the percent growth (G%) of the treated cancer cells. Percentage growth inhibition (GI%) is calculated (100 − G%) and pronounced in Table 1. […] Target compounds in series (III) with manipulated linkers disclosed lower potency. Superiorly, eight s-triazine derivatives from the three series (6a, 6c, 6d, 7a, 7g, 7i, 7l, and 8b) have shown potent broad-spectrum anticancer activity against most the examined cell lines, whereas most of the remaining triazine derivatives, 20 derivatives, have exerted selective anti-proliferative actions towards certain cancer cell lines (Supplementary).
(§2) The antitumor screening was performed for 60 human cancer cell lines under the protocol of NCI (www.dtp.nci.nih.gov), the Drug Evaluation Branch, Bethesda, MD. All submitted compounds were nominated based on the degree of structural diversity and computer modelling techniques for evaluation of their anticancer activity. The screening process for antineoplastic activity passes through two successive levels, starting with the assessment of target compounds at a single dose of 10 μM against 60 cancer cell lines on nine types of human tumours. These experiments were done on a triplicate following. The output from the single‐dose screening was covered as a mean graph, and then, analysed by the COMPARE program. Finally, the compounds which disclosed subpanel cancer cell growth (G %) equal to or less than 10% in at least eight cancer cell lines get to pass the assessment against the 60 cell lines at five doses (0.01–100 μM). By using GraphPad Prism version 9.0 (Graphpad Software Inc., La Jolla, CA), GI50, TGI, as well as LC50 dose‐response parameters were computed and presented for each compound (Supplementary information)[55–57].

[6] = tested on: SNB-19; assay: NCI 60 antitumor screening (single dose); conditions: Homo sapiens; SNB-19 (CNS cancer), single dose 10 μM; read-out: Growth inhibition percentage (GI %)
Method: as §1, §2

[7] = tested on: U251; assay: NCI 60 antitumor screening (single dose); conditions: Homo sapiens, U-251; U251 (CNS cancer), single dose 10 μM; read-out: Growth inhibition percentage (GI %)
Method: as §1, §2

[8] = tested on: KM 12; assay: NCI 60 antitumor screening (single dose); conditions: Homo sapiens, KM12; KM 12 (colon cancer), single dose 10 μM; read-out: Growth inhibition percentage (GI %)
Method: as §1, §2

[9] = tested on: OVCAR-5; assay: NCI 60 antitumor screening (single dose); conditions: Homo sapiens
Method: as §1, §2

[10] = tested on: SK-OV-3; assay: NCI 60 antitumor screening (single dose); conditions: Homo sapiens
Method: as §1, §2

[11] = tested on: NCI-H460; assay: NCI 60 antitumor screening (single dose); conditions: Homo sapiens; NCI-H460 (non-small cell lung cancer), single dose 10 μM; read-out: Growth inhibition percentage (GI %)
Method: as §1, §2

[12] = tested on: CAKI-1; assay: NCI 60 antitumor screening (single dose); conditions: Homo sapiens
Method: as §1, §2

[13] = tested on: HS 578T; assay: NCI 60 antitumor screening (single dose); conditions: Homo sapiens, read-out: Growth inhibition percentage (GI %)
Method: as §1, §2

[14] = tested on: M14; assay: NCI 60 antitumor screening (single dose); conditions: Homo sapiens
Method: as §1, §2

[15] = tested on: TK-10; assay: NCI 60 antitumor screening (single dose); conditions: Homo sapiens
Method: as §1, §2

[16] = tested on: NCI-H322M; assay: NCI 60 antitumor screening (single dose); conditions: Homo sapiens; NCI-H322M (non-small cell lung cancer), single dose 10 μM; read-out: Growth inhibition percentage (GI %)
Method: as §1, §2

[17] = tested on: HOP-62; assay: NCI 60 antitumor screening (single dose); conditions: Homo sapiens; HOP-62 (non-small cell lung cancer), single dose 10 μM; read-out: Growth inhibition percentage (GI %)
Method: as §1, §2

[18] = tested on: NCI-H226; assay: NCI 60 antitumor screening (single dose); conditions: Homo sapiens; NCI-H226 (non-small cell lung cancer), single dose 10 μM; read-out: Growth inhibition percentage (GI %)
Method: as §1, §2

[19] = tested on: MCF7; assay: NCI 60 antitumor screening (single dose); conditions: Homo sapiens
Method: as §1, §2

[20] = tested on: OVCAR-4; assay: NCI 60 antitumor screening (single dose); conditions: Homo sapiens
Method: as §1, §2

[21] = tested on: HCC-2998; assay: NCI 60 antitumor screening (single dose); conditions: Homo sapiens; HCC-2998 (colon cancer), single dose 10 μM; read-out: Growth inhibition percentage (GI %)
Method: as §1, §2

[22] = tested on: A549/ATCC; assay: NCI 60 antitumor screening (single dose); conditions: Homo sapiens; A549/ATCC (non-small cell lung cancer), single dose 10 μM; read-out: Growth inhibition percentage (GI %)
Method: as §1, §2

[23] = tested on: SF-268; assay: NCI 60 antitumor screening (single dose); conditions: Homo sapiens; SF-268 (CNS cancer), single dose 10 μM; read-out: Growth inhibition percentage (GI %)
Method: as §1, §2

[24] = tested on: OVCAR-8; assay: NCI 60 antitumor screening (single dose); conditions: Homo sapiens
Method: as §1, §2

[25] = tested on: PC-3; assay: NCI 60 antitumor screening (single dose); conditions: Homo sapiens
Method: as §1, §2

[26] = tested on: OVCAR-3; assay: NCI 60 antitumor screening (single dose); conditions: Homo sapiens
Method: as §1, §2

[27] = tested on: NCI-H23; assay: NCI 60 antitumor screening (single dose); conditions: Homo sapiens; NCI-H23 (non-small cell lung cancer), single dose 10 μM; read-out: Growth inhibition percentage (GI %)
Method: as §1, §2

[28] = SR (leukaemia), single dose 10 μM
[29] = MDA-MB-435 (melanoma), single dose 10 μM, read-out: Growth inhibition percentage (GI %)
[30] = RXF 393 (renal cancer), single dose 10 μM, read-out: Growth inhibition percentage (GI %)
[31] = HOP-92 (non-small cell lung cancer), single dose 10 μM, read-out: Growth inhibition percentage (GI %)
[32] = OVCAR-5 (ovarian cancer), single dose 10 μM, read-out: Growth inhibition percentage (GI %)
[33] = SK-OV-3 (ovarian cancer), single dose 10 μM, read-out: Growth inhibition percentage (GI %)
[34] = CAKI-1 (renal cancer), single dose 10 μM, read-out: Growth inhibition percentage (GI %)
[35] = HS 578T (breast cancer), single dose 10 μM
[36] = M14 (melanoma), single dose 10 μM, read-out: Growth inhibition percentage (GI %)
[37] = TK-10 (renal cancer), single dose 10 μM, read-out: Growth inhibition percentage (GI %)
[38] = MCF7 (breast cancer), single dose 10 μM, read-out: Growth inhibition percentage (GI %)
[39] = OVCAR-4 (ovarian cancer), single dose 10 μM, read-out: Growth inhibition percentage (GI %)
[40] = OVCAR-8 (ovarian cancer), single dose 10 μM, read-out: Growth inhibition percentage (GI %)
[41] = PC-3 (prostate cancer), single dose 10 μM, read-out: Growth inhibition percentage (GI %)
[42] = OVCAR-3 (ovarian cancer), single dose 10 μM, read-out: Growth inhibition percentage (GI %)

## Fc1cccc(/C=N/Nc2nc(N/N=C/c3cccc(F)c3)nc(N3CCOCC3)n2)c1 [compound 6e, 2,4-Bis[(E)-2-[(3-Fluorophenyl)methylidene]hydrazin-1-yl]-6-(morpholin-4-yl)-1,3,5-triazine]
[1]; [28]
  inhibition at 10 µM: 60.2%
[2]; [29]
  inhibition at 10 µM: 1.89%
[3]; [30]
  inhibition at 10 µM: 79.3%
[4]; [31]
  inhibition at 10 µM: 8.68%
[5]
  inhibition at 10 µM: 4.23%
[6]
  inhibition at 10 µM: 1.85%
[7]
  inhibition at 10 µM: 23.8%
[8]
  inhibition at 10 µM: 0.3%
[9]; [32]
  inhibition at 10 µM: -3.81%
[10]; [33]
  inhibition at 10 µM: -17.7%
[11]
  inhibition at 10 µM: 5.44%
[12]; [34]
  inhibition at 10 µM: 11.3%
[13]; [35]
  inhibition at 10 µM: -0.4%
[14]; [36]
  inhibition at 10 µM: 100%
[15]; [37]
  inhibition at 10 µM: -28.1%
[16]
  inhibition at 10 µM: 3.82%
[17]
  inhibition at 10 µM: -5.63%
[18]
  inhibition at 10 µM: 5.56%
[19]; [38]
  inhibition at 10 µM: 19.3%
[20]; [39]
  inhibition at 10 µM: 0.54%
[21]
  inhibition at 10 µM: -2.3%
[22]
  inhibition at 10 µM: 6.5%
[23]
  inhibition at 10 µM: 4.91%
[24]; [40]
  inhibition at 10 µM: 8.56%
[25]; [41]
  inhibition at 10 µM: 24.5%
[26]; [42]
  inhibition at 10 µM: 19.3%
[27]
  inhibition at 10 µM: -1.55%

## O=[N+]([O-])c1cccc(/C=N/Nc2nc(N/N=C/c3cccc([N+](=O)[O-])c3)nc(N3CCOCC3)n2)c1 [compound 6f, 2-(Morpholin-4-yl)-4,6-bis[(E)-2-[(3-nitrophenyl)methylidene]hydrazin-1-yl]-1,3,5-triazine]
[1]; SR
  inhibition at 10 µM: 66%
[2]; MDA-MB-435, read-out: Growth inhibition percentage (GI %)
  inhibition at 10 µM: 9.84%
[3]; RXF 393, read-out: Growth inhibition percentage (GI %)
  inhibition at 10 µM: 28.1%
[4]; HOP-92, read-out: Growth inhibition percentage (GI %)
  inhibition at 10 µM: 14.2%
[5]
  inhibition at 10 µM: 34.8%
[6]
  inhibition at 10 µM: 4.49%
[7]
  inhibition at 10 µM: 17.2%
[8]
  inhibition at 10 µM: 15%
[9]; OVCAR-5, read-out: Growth inhibition percentage (GI %)
  inhibition at 10 µM: -17%
[10]; SK-OV-3, read-out: Growth inhibition percentage (GI %)
  inhibition at 10 µM: -29%
[11]
  inhibition at 10 µM: 17%
[12]; CAKI-1, read-out: Growth inhibition percentage (GI %)
  inhibition at 10 µM: 29.5%
[13]; Hs-578T
  inhibition at 10 µM: 16.7%
[14]; M14, read-out: Growth inhibition percentage (GI %)
  inhibition at 10 µM: 14%
[15]; TK-10, read-out: Growth inhibition percentage (GI %)
  inhibition at 10 µM: -45.7%
[16]
  inhibition at 10 µM: 5.64%
[17]
  inhibition at 10 µM: 26.4%
[18]
  inhibition at 10 µM: 26.4%
[19]; MCF7, read-out: Growth inhibition percentage (GI %)
  inhibition at 10 µM: 34.7%
[20]; OVCAR-4, read-out: Growth inhibition percentage (GI %)
  inhibition at 10 µM: 18.4%
[21]
  inhibition at 10 µM: -2.57%
[22]
  inhibition at 10 µM: 28.6%
[23]
  inhibition at 10 µM: 6.36%
[24]; OVCAR-8, read-out: Growth inhibition percentage (GI %)
  inhibition at 10 µM: 39.9%
[25]; PC-3, read-out: Growth inhibition percentage (GI %)
  inhibition at 10 µM: 37.9%
[26]; OVCAR-3, read-out: Growth inhibition percentage (GI %)
  inhibition at 10 µM: 19%
[27]
  inhibition at 10 µM: 27.6%

## CN(C)c1ccc(/C=N/Nc2nc(N/N=C/c3ccc(N(C)C)cc3)nc(N3CCOCC3)n2)cc1 [compound 6g, 4-[(1e)-(2-{4-[(E)-2-{[4-(dimethylamino)phenyl]methylidene}hydrazin-1-yl]-6-(morpholin-4-yl)-1,3,5-triazin-2-yl}hydrazin-1-ylidene)methyl]-N,N-dimethylaniline]
[1]; [28]
  inhibition at 10 µM: 113%
[2]; [29]
  inhibition at 10 µM: -4.43%
[3]; [30]
  inhibition at 10 µM: 6.9%
[4]; [31]
  inhibition at 10 µM: -8.78%
[5]
  inhibition at 10 µM: 1.08%
[6]
  inhibition at 10 µM: 8.7%
[7]
  inhibition at 10 µM: 55.7%
[8]
  inhibition at 10 µM: -3.9%
[9]; [32]
  inhibition at 10 µM: -10.4%
[10]; [33]
  inhibition at 10 µM: -9.91%
[11]
  inhibition at 10 µM: 83.3%
[12]; [34]
  inhibition at 10 µM: 4.03%
[13]; [35]
  inhibition at 10 µM: 2.43%
[14]; [36]
  inhibition at 10 µM: -2.62%
[15]; [37]
  inhibition at 10 µM: -10.2%
[16]
  inhibition at 10 µM: -0.33%
[17]
  inhibition at 10 µM: -5.52%
[18]
  inhibition at 10 µM: 6.53%
[19]; [38]
  inhibition at 10 µM: 45.1%
[20]; [39]
  inhibition at 10 µM: -3.79%
[21]
  inhibition at 10 µM: -2.9%
[22]
  inhibition at 10 µM: 25.1%
[23]
  inhibition at 10 µM: 2.19%
[24]; [40]
  inhibition at 10 µM: 1.04%
[25]; [41]
  inhibition at 10 µM: 12.3%
[26]; [42]
  inhibition at 10 µM: -9.22%
[27]
  inhibition at 10 µM: 0.65%
